{
  "source": "patent US5145955A",
  "about": "“Process for the preparation and composition of a fraction containing picroside I and kutkoside” (Council of Scientific & Industrial Research, priority 1991, dated 1992)",
  "key": {"[1]": {"test_system": "thioacetamide induced hepatic damage (liver)", "test": "Protection against thioacetamide induced biochemical changes in liver in rat", "format": "in vivo", "experimental": "Although cucurbitacin glucoside (III) was a known compound, its biological activity is reported here for the first time. […] At higher dose (1 mg/kg) also, it reversed the decrease in levels of DNA (56%), RNA (100%) and glycogen (36%)."}, "[2]": {"test_system": "liver and serum biochemical parameters", "test": "Protection against altered liver and serum biochemical parameters (toxicant not given)", "format": "in vivo"}, "cholestasis": {"test_system": "cholestasis", "test": "Anticholestatic effect against induced cholestasis", "format": "in vivo", "conditions": "paracetamol induced; 0.5 and 1 mg/kg po × 7"}, "[3]": {"test_system": "Plasmodium berghei infection in mastomys", "test": "Hepatoprotective activity against Plasmodium berghei infection-induced hepatic damage", "format": "in vivo", "conditions": "1 mg/kg po × 15 days"}, "isolated rat hepatocytes": {"test_system": "isolated rat hepatocytes", "format": "cell-based", "conditions": "paracetamol-toxicated", "experimental": "In the isolated hepatocyte preparation the, hepatoprotective activity was assessed against paracetamol, galactosamine carbon tetrachloride and thioacetamide induced damage.\nThe effect of cucurbitacin glucoside and F006 was also studied on paracetamol-toxicated isolated rat hepatocytes (ex vivo). At the doses of 0.5 and 1 mg/kg po×7."}, "[4]": {"test_system": "bile flow (choleretic effect)", "test": "Choleretic effect of cucurbitacin glucoside and F006 (bile volume and bile contents)", "format": "in vivo"}, "[5]": {"conditions": "dose not given, range given for both agents"}},
  "note": "Where two headings read alike, the source gives them in different places.",
  "data": [
    {"smiles": "CC(=O)OC(C)(C)C=CC(=O)C(C)(O)C1C(O)CC2(C)C3CC=C4C(CC(O[C@@H]5O[C@H](CO)[C@@H](O)[C@H](O)[C@H]5O)C(O)C4(C)C)C3(C)CCC12C", "note": "(stereo partly drawn) [Cucurbitacin glucoside, 25-acetoxy-2β-D-glucopyranoxy-3,16,20-trihydroxy-9-methyl-19-norlanosta-5,23-diene-22-one]", "values": [
      {"measurement": "toxicant-induced decrease in activity of succinate dehydrogenase", "setting": "[1]; higher dose (1 mg/kg)", "result": "reversed significantly"},
      {"measurement": "toxicant-induced increase in activity of acid ribonuclease", "setting": "[1]; higher dose (1 mg/kg)", "result": "reversed significantly"},
      {"measurement": "protection against decrease in DNA level in liver", "setting": "[1]; thioacetamide, 0.48 mg/kg", "result": 94, "unit": "%"},
      {"measurement": "protection against decrease in RNA level in liver", "setting": "[1]; thioacetamide, 0.48 mg/kg", "result": 95, "unit": "%"},
      {"measurement": "protection against decrease in glycogen level in liver", "setting": "[1]; thioacetamide, 0.48 mg/kg", "result": 60, "unit": "%"},
      {"measurement": "reversal of decrease in DNA level", "setting": "[1]; thioacetamide, 1 mg/kg", "result": 56, "unit": "%"},
      {"measurement": "reversal of decrease in RNA level", "setting": "[1]; thioacetamide, 1 mg/kg", "result": 100, "unit": "%"},
      {"measurement": "reversal of decrease in glycogen level", "setting": "[1]; thioacetamide, 1 mg/kg", "result": 36, "unit": "%"},
      {"measurement": "activity of cytochrome P450", "setting": "[2]; 1 mg/kg", "result": "significantly restored"},
      {"measurement": "activity of γ-glutamyl transpeptidase", "setting": "[2]; 1 mg/kg", "result": "significantly restored"},
      {"measurement": "level of DNA", "setting": "[2]; 1 mg/kg", "result": "significant reversal"},
      {"measurement": "level of RNA", "setting": "[2]; 1 mg/kg", "result": "significant reversal"},
      {"measurement": "level of glycogen", "setting": "[2]; 1 mg/kg", "result": "significant reversal"},
      {"measurement": "serum level of GOT", "setting": "[2]; 1 mg/kg", "result": "restored almost completely towards normal"},
      {"measurement": "serum level of GPT", "setting": "[2]; 1 mg/kg", "result": "restored almost completely towards normal"},
      {"measurement": "level of bilirubin in serum", "setting": "[2]; dose not given", "result": "recovered"},
      {"measurement": "level of protein in serum", "setting": "[2]; dose not given", "result": "recovered"},
      {"measurement": "protection, level of phospholipids", "setting": "[2]; dose not given", "result": "significant protection"},
      {"measurement": "protection, 5'-nucleotidase activity", "setting": "[2]; [5]", "result": "46-56%"},
      {"measurement": "protection, acid ribonuclease activity", "setting": "[2]; [5]", "result": "48-96%"},
      {"measurement": "protection, glucose-6-phosphatase activity", "setting": "[2]; [5]", "result": "46-61%"},
      {"measurement": "protection, level of DNA", "setting": "[2]; [5]", "result": "55-78%"},
      {"measurement": "protection, level of protein", "setting": "[2]; [5]", "result": "96-100%"},
      {"measurement": "recovery of increased level of total lipids", "setting": "[2]; [5]", "result": "44-55%"},
      {"measurement": "reversal of decrease in bile acids", "setting": "cholestasis", "result": "completely reversed"},
      {"measurement": "reversal of decrease in bile flow", "setting": "cholestasis", "result": "completely reversed"},
      {"measurement": "reversal of decrease in bile salts", "setting": "cholestasis", "result": "completely reversed"},
      {"measurement": "protection against hepatic damage (biochemical parameters in serum and liver)", "setting": "[3]", "result": "marked protection"},
      {"measurement": "protection by Trypan blue exclusion test (cell viability)", "setting": "isolated rat hepatocytes; 0.5 mg/kg po × 7", "result": 97.4, "unit": "%"},
      {"measurement": "rate of oxygen consumption / oxygen uptake test", "setting": "isolated rat hepatocytes; 0.5 mg/kg po × 7", "result": 100, "unit": "%"},
      {"measurement": "protection by Trypan blue exclusion test (cell viability)", "setting": "isolated rat hepatocytes; 1 mg/kg po × 7", "result": 100, "unit": "%"},
      {"measurement": "rate of oxygen consumption / oxygen uptake test", "setting": "isolated rat hepatocytes; 1 mg/kg po × 7", "result": 100, "unit": "%"},
      {"measurement": "increase in bile salts", "setting": "[4]; 0.5 mg/kg", "result": 40, "unit": "%"},
      {"measurement": "increase in cholic acid", "setting": "[4]; 0.5 mg/kg", "result": 38.5, "unit": "%"},
      {"measurement": "increase in deoxycholic acid", "setting": "[4]; 0.5 mg/kg", "result": 47.6, "unit": "%"},
      {"measurement": "increase in volume of bile / bile flow", "setting": "[4]; 0.5 mg/kg", "result": 38, "unit": "%"},
      {"measurement": "increase in bile salts", "setting": "[4]; 1 mg/kg", "result": 100, "unit": "%"},
      {"measurement": "increase in cholic acid", "setting": "[4]; 1 mg/kg", "result": 100, "unit": "%"},
      {"measurement": "increase in deoxycholic acid", "setting": "[4]; 1 mg/kg", "result": 100, "unit": "%"},
      {"measurement": "increase in volume of bile / bile flow", "setting": "[4]; 1 mg/kg", "result": 90, "unit": "%"}
    ]}
  ]
}
